In patent publication US20250144224A1, “ABL INHIBITORS AND USES THEREOF” (The Regents of the University of California, priority 2021, published 2025):

Tests used:
[1] = test system: K562 cells (CRISPR base-edited Bcr-Abl T315I); assay: CellTiter-Glo cell viability, K562 Bcr-Abl T315I; conditions: Homo sapiens, K562, 72 h, read-out: EC50 (nM) CTG K562 T315I
Method: (§1) Compounds were tested for ability to inhibit cell growth. K562 cells (wild-type or CRISPR base-edited Bcr-Abl T315I) were plated at 1000 cells/well in 96-well plates and treated with the indicated compounds at the indicated concentrations for three days in triplicate, then tested for cell viability by the CellTiter-Glo 2.0 assay (Promega).
(§2) Compounds were tested for ability to inhibit cell growth. K562 cells (wild-type or CRISPR base-edited Bcr-Abl T315I) were plated at 1000 cells/well in 96-well plates and treated with the indicated compounds at the indicated concentrations for three days in triplicate, then tested for cell viability by the CellTiter-Glo 2.0 assay (Promega). […] Compounds were tested for ability to inhibit cell growth. K562 cells (wild-type or CRISPR base-edited Bcr-Abl T315I) were plated at 1000 cells/well in 96-well plates and treated with the indicated compounds at the indicated concentrations for three days in triplicate, then tested for cell viability by the CellTiter-Glo 2.0 assay (Promega).
(§3) Cells were treated with the indicated concentrations of compound in 9-point 3-fold dilution series (100 μL final volume per well) and incubated at 37° C. for 72 h. Cell viability was assessed by CellTiter-Glo (CTG) Luminescent Cell Viability Assay (Promega). Cells were equilibrated to room temperature before the addition of diluted (1:4 CTG reagent:PBS) CTG reagent (100 μL per well). Plates were agitated on an orbital shaker and luminescence signal was measured on a SpectraMax M5 (Molecular Devices) or Spark (Tecan) plate reader. Repeated measurements of luminescence were performed as technical replicates to determine incubation times optimal for signal-to-noise. Luminescence measurements were normalized to DMSO-treated values to determine relative cell viability.

K562 cells (wild-type) = assay: CellTiter-Glo cell viability, K562 wild-type; conditions: Homo sapiens, K562, 72 h, read-out: EC50 (nM) CTG K562 wt
Method: as §1, §2, §3

Abl wt = Abl wt (Homo sapiens, UniProt P00519); assay: SelectScreen Z'LYTE kinase assay, Abl wt
Method: (§4) Biochemical inhibition of BCR-ABL (wild type) and BCR-ABL (T315I). […] Biochemical experiments performed by Thermo SelectScreen, under conditions which mask the effects of allosteric inhibition. Conditions contain 0.01% BRIJ-35, a common non-ionic detergent added to kinase assay buffers.
(§5) Compounds were tested for ability to inhibit wild-type and T315I Abl kinases in vitro at the indicated concentrations by the SelectScreen Z'LYTE assay (Thermo Scientific).

Abl_T315I = Abl_T315I (Homo sapiens, UniProt P00519, T315I); assay: SelectScreen Z'LYTE kinase assay, Abl T315I
Method: as §4, §5

[2] = Parallel artificial membrane permeability assay (PAMPA); assay type: in vitro ADME
Method: PAMPA was performed by Quintara Discovery using the BioCoat Pre-coated PAMPA Plate System (Corning) as described previously (15) and based on manufacturer's recommendations. All compounds were assessed at 100 μM in PBS. Compound concentrations in donor and acceptor compartments were quantified using liquid chromatography-mass spectrometry (LC-MS) 5 h following compound addition into the donor compartment.

[3] = test system: K562 CRISPRi or CRISPRa cells expressing sgRNAs targeting IFITM1-3; assay: Internally normalized cellular fluorescence uptake assay; conditions: 24 h; TAMRA-N3 10 nM, TAMRA-PEG8-N3 1 μM, RapaTAMRA 1 nM
Method: FIGS. 2B-2C: Measurement of fluorescent molecule uptake in K562 CRISPRi (FIG. 2B) or CRISPRa (FIG. 2C) cells expressing sgRNAs (sgRNA+). Cells were incubated with TAMRA-N3 (10 nM), TAMRA-PEG8-N3 (1 μM), or RapaTAMRA (1 nM) for 24 h. Uptake modulation by sgRNAs was quantified by internal normalization to non-transduced cells (sgRNA−) present within the mixture (i.e., relative cellular uptake). Data representative of three biological replicates. FIG. 2D: Changes in uptake of fluorescent molecules by sgRNAs targeting IFITM1-3 as in (FIGS. 2B-2C). […] Data represent means of three biological replicates.
K562 CRISPRi or CRISPRa cells stably expressing sgRNAs marked with BFP mixed at a 1:1 ratio with non-transduced (sgRNA−) cells (20,000 cells in 180 μL per well) were seeded into 96-well round bottom plates and incubated at 37° C. overnight. Cells were treated with fluorescent compounds at the concentrations indicated (200 μL final volume per well) and incubated at 37° C. for 24 h. Cells were pelleted at 500 g, washed twice with ice-cold PBS supplemented with 1% bovine serum albumin (Millipore) and 0.1% NaN3, and resuspended in the same before assessment by flow cytometry on an Attune NxT (Thermo Fisher Scientific). […] Relative cellular uptake was determined by dividing the median TAMRA fluorescence intensity of BFP+ populations by that of BFP—populations (FIG. 2B). […]

Row | Structure (SMILES) | EC50 [1] | EC50 (K562 cells (wild-type)) | further results
1 | Cc1nc(Nc2ncc(C(=O)Nc3c(C)cccc3Cl)s2)cc(N2CCN(C(=O)CCOCCOCCOCCOCCOCCOCCOCCOCCOCCOCCNC(=O)C3CCN(c4ncc(C(=O)Nc5ccc(OC(F)(F)Cl)cc5)cc4-c4ccn[nH]4)CC3)CC2)n1 [DasatiLink-2] | > 300 nM | 2.49 nM | 
2 | Cc1nc(Nc2ncc(C(=O)Nc3c(C)cccc3Cl)s2)cc(N2CCN(C(=O)CCOCCOCCOCCOCCOCCOCCOCCOCCNC(=O)C3CCN(c4ncc(C(=O)Nc5ccc(OC(F)(F)Cl)cc5)cc4-c4ccn[nH]4)CC3)CC2)n1 [DasatiLink-3] | > 300 nM | 2.94 nM | EC50 (Abl wt): 1.04 nM
3 | Cc1nc(Nc2ncc(C(=O)Nc3c(C)cccc3Cl)s2)cc(N2CCN(C(=O)CCOCCOCCOCCOCCOCCOCCNC(=O)C3CCN(c4ncc(C(=O)Nc5ccc(OC(F)(F)Cl)cc5)cc4-c4ccn[nH]4)CC3)CC2)n1 [DasatiLink-4] | > 300 nM | 2.62 nM | EC50 (Abl wt): 1.81 nM
4 | Cc1ccc(C(=O)Nc2ccc(CN3CCN(C(=O)CCOCCOCCOCCOCCOCCOCCOCCOCCOCCOCCOCCOCCNC(=O)C4CCN(c5ncc(C(=O)Nc6ccc(OC(F)(F)Cl)cc6)cc5-c5ccn[nH]5)CC4)CC3)c(C(F)(F)F)c2)cc1C#Cc1cnc2cccnn12 [PonatiLink-1-12] | 43.7 nM | 2.76 nM | EC50 (Abl wt): 319 nM; EC50 (Abl_T315I): 3580 nM
5 | Cc1ccc(C(=O)Nc2ccc(CN3CCN(C(=O)CCOCCOCCOCCOCCOCCOCCOCCOCCOCCOCCOCCOCCOCCOCCOCCOCCNC(=O)C4CCN(c5ncc(C(=O)Nc6ccc(OC(F)(F)Cl)cc6)cc5-c5ccn[nH]5)CC4)CC3)c(C(F)(F)F)c2)cc1C#Cc1cnc2cccnn12 [PonatiLink-1-16] | 28.7 nM | 1.4 nM | EC50 (Abl wt): 82 nM; EC50 (Abl_T315I): 229 nM
6 | Cc1ccc(C(=O)Nc2ccc(CN3CCN(C(=O)CCOCCOCCOCCOCCOCCOCCOCCOCCOCCOCCOCCOCCOCCOCCOCCOCCOCCOCCOCCOCCNC(=O)C4CCN(c5ncc(C(=O)Nc6ccc(OC(F)(F)Cl)cc6)cc5-c5ccn[nH]5)CC4)CC3)c(C(F)(F)F)c2)cc1C#Cc1cnc2cccnn12 [PonatiLink-1-20] | 26.2 nM | 1.02 nM | EC50 (Abl wt): 10.8 nM; EC50 (Abl_T315I): 215 nM
7 | Cc1ccc(C(=O)Nc2ccc(CN3CCN(C(=O)CCOCCOCCOCCOCCOCCOCCOCCOCCOCCOCCOCCOCCOCCOCCOCCOCCOCCOCCOCCOCCOCCOCCOCCOCCNC(=O)C4CCN(c5ncc(C(=O)Nc6ccc(OC(F)(F)Cl)cc6)cc5-c5ccn[nH]5)CC4)CC3)c(C(F)(F)F)c2)cc1C#Cc1cnc2cccnn12 [PonatiLink-1-24] | 26.3 nM | 0.87 nM | 
8 | Cc1ccc(C(=O)Nc2ccc(CN3CCN(C(=O)CCOCCOCCOCCOCCOCCOCCOCCOCCOCCOCCOCCOCCOCCOCCOCCOCCOCCOCCOCCOCCOCCOCCOCCOCCOCCOCCOCCOCCNC(=O)C4CCN(c5ncc(C(=O)Nc6ccc(OC(F)(F)Cl)cc6)cc5-c5ccn[nH]5)CC4)CC3)c(C(F)(F)F)c2)cc1C#Cc1cnc2cccnn12 [PonatiLink-1-28] | 49.1 nM | 1.82 nM | 
9 | Cc1ccc(C(=O)Nc2ccc(CN3CCN(C)CC3)c(C(F)(F)F)c2)cc1C#Cc1cnc2cc(OCCOCCOCCOCCOCCOCCOCCNC(=O)CCOCCOCCOCCOCCNC(=O)C3CCN(c4ncc(C(=O)Nc5ccc(OC(F)(F)Cl)cc5)cc4-c4ccn[nH]4)CC3)ccn12 [PonatiLink-2-7-4] | 1.3 nM | 0.39 nM | 
10 | Cc1ccc(C(=O)Nc2ccc(CN3CCN(C)CC3)c(C(F)(F)F)c2)cc1C#Cc1cnc2cc(OCCOCCOCCOCCOCCOCCOCCNC(=O)CCOCCOCCOCCOCCOCCOCCNC(=O)C3CCN(c4ncc(C(=O)Nc5ccc(OC(F)(F)Cl)cc5)cc4-c4ccn[nH]4)CC3)ccn12 [PonatiLink-2-7-6] | 1.06 nM | 0.38 nM | 
11 | Cc1ccc(C(=O)Nc2ccc(CN3CCN(C)CC3)c(C(F)(F)F)c2)cc1C#Cc1cnc2cc(OCCOCCOCCOCCOCCOCCOCCNC(=O)CCOCCOCCOCCOCCOCCOCCOCCOCCNC(=O)C3CCN(c4ncc(C(=O)Nc5ccc(OC(F)(F)Cl)cc5)cc4-c4ccn[nH]4)CC3)ccn12 [PonatiLink-2-7-8] | 0.94 nM | 0.36 nM | 
12 | Cc1ccc(C(=O)Nc2ccc(CN3CCN(C)CC3)c(C(F)(F)F)c2)cc1C#Cc1cnc2cc(OCCOCCOCCOCCOCCOCCOCCNC(=O)CCOCCOCCOCCOCCOCCOCCOCCOCCOCCOCCNC(=O)C3CCN(c4ncc(C(=O)Nc5ccc(OC(F)(F)Cl)cc5)cc4-c4ccn[nH]4)CC3)ccn12 [PonatiLink-2-7-10] | 0.94 nM | 0.43 nM | 
13 | CO[C@@H]1C[C@@H]2CC[C@@H](C)[C@@](O)(O2)C(=O)C(=O)N2CCCC[C@@H]2C(=O)O[C@H]([C@H](C)C[C@H]2CC[C@H](OCCOCc3cn(CCOCCOCCOCCOCCOCCOCCOCCOCCC(=O)NCCCCn4nc(-c5ccc6oc(N)nc6c5)c5c(N)ncnc54)nn3)[C@H](OC)C2)CC(=O)[C@H](C)/C=C(\C)[C@H](O)[C@@H](OC)C(=O)[C@H](C)C[C@H](C)/C=C/C=C/C=C/1C [RapaLink-1] |  |  | artificial membrane permeability by PAMPA ([2]; PAMPA): no measurable permeability
14 | CO[C@H]1C[C@@H]2CC[C@@H](C)[C@@](O)(O2)C(=O)C(=O)N2CCCC[C@H]2C(=O)O[C@H]([C@H](C)C[C@@H]2CC[C@@H](OCCOCc3cn(CCOCCOCCOCCOCCOCCOCCOCCOCCNC(=O)c4ccc(C(=O)[O-])c(-c5c6ccc(=[N+](C)C)cc-6oc6cc(N(C)C)ccc56)c4)nn3)[C@H](OC)C2)CC(=O)[C@H](C)/C=C(\C)[C@@H](O)[C@@H](OC)C(=O)[C@H](C)C[C@H](C)/C=C/C=C/C=C/1C [RapaTAMRA] |  |  | change in relative cellular uptake with IFITM1-3 knockdown / overexpression [3]: decreased uptake upon knockdown of IFITM1-3 and increased uptake upon overexpression
15 | O=C(Nc1ccc(OC(F)(F)Cl)cc1)c1cnc(N2CC[C@@H](O)C2)c(-c2ccn[nH]2)c1 [asciminib, reference compound] |  |  | artificial membrane permeability by PAMPA ([2]; 100 μM in PBS, 5 h, LC-MS): readily permeable
16 | Cc1nc(Nc2ncc(C(=O)Nc3c(C)cccc3Cl)s2)cc(N2CCN(CCO)CC2)n1 [dasatinib] |  |  | artificial membrane permeability by PAMPA ([2]; 100 μM in PBS, 5 h, LC-MS): readily permeable
17 | CO[C@H]1C[C@@H]2CC[C@@H](C)[C@@](O)(O2)C(=O)C(=O)N2CCCC[C@H]2C(=O)O[C@H]([C@H](C)C[C@@H]2CC[C@@H](O)[C@H](OC)C2)CC(=O)[C@H](C)/C=C(\C)[C@@H](O)[C@@H](OC)C(=O)[C@H](C)C[C@H](C)/C=C/C=C/C=C/1C [rapamycin] |  |  | artificial membrane permeability by PAMPA ([2]; 100 μM in PBS, 5 h, LC-MS): readily permeable
18 | CC(C)n1nc(-c2ccc3oc(N)nc3c2)c2c(N)ncnc21 [sapanisertib] |  |  | artificial membrane permeability by PAMPA ([2]; 100 μM in PBS, 5 h, LC-MS): readily permeable
